{
  "source": "patent US20260108483A1",
  "about": "“METHODS AND COMPOSITIONS FOR PREVENTING THE PROGRESSION OF DIABETIC RETINOPATHY AND RELATED CONDITIONS” (Opus Genetics, Inc., priority 2023, published 2026)",
  "assay": "Clinical study safety: treatment-emergent adverse events",
  "format": "in vivo, human",
  "description": "The study was configured as a placebo-controlled, double-masked, randomized, Phase 2 study in approximately 100 subjects with moderately severe to severe NPDR (diabetic retinopathy severity score [DRSS] Level 47 or 53, see FIG. 1) or mild PDR (DRSS Level 61), evaluating safety and efficacy following administration of Compound 1 twice daily for 24 weeks. The study was configured for a 1:1 randomization (placebo: Compound 1). Randomization was stratified by level of disease severity (NPDR or PDR). Subjects with mild PDR were capped at 20% for each arm. Efficacy evaluations at 12 and/or 24 weeks included DRSS, center-involved diabetic macular edema (DME), moderate PDR or PDR-related adverse events (AEs), best-corrected visual acuity (BCVA), and central subfield thickness (CST). Further experimental procedures and results are described below.\nAt the Qualification/Baseline (Visit 2, Day 1): • The subject was randomized into the study. • Study medication was dispensed in accordance with the subjects randomized treatment arm. • Blood samples were drawn pre-dose for baseline levels and on Visit 9 (Week 24) for exploratory biomarker processing (i.e., cytokine and Ref-1 levels) to evaluate pharmacodynamic properties. • Subjects were instructed to administer their study medication (Compound 1 or placebo) each day, with 3 tablets every morning and 2 tablets every evening. Study medication was to be taken at approximately the same time each day and may be taken with or without food.\nSafety endpoints include: • Incidence and severity of systemic and ocular AEs, • Change from baseline in body system assessments, • Change from baseline in vital sign measurements, • Change from baseline in clinical laboratory assay results (blood chemistry, hematology), • Change from baseline in intraocular pressure (IOP), • Change from baseline in slit-lamp examination parameters, • Change from baseline in dilated funduscopic examination parameters, • Percent of subjects with a decrease of ≥10 letters in BCVA compared to baseline at Week 12 and Week 24, • Percent of subjects progressing to center-involved DME (eligible for rescue treatment at Week 12 and Week 24), • Percent of subjects with a worsening in DRSS of ≥2 steps in the study eye at Week 12 and Week 24, • Percent of subjects developing anterior segment neovascularization at Week 12 and Week 24, • Percent of subjects rescued (intravitreal anti-VEGF injection, laser PRP, focal/grid laser treatment, or surgery [vitrectomy]) at the discretion of the Investigator at Week 12 and Week 24, and • Change from baseline in estimated glomerular filtration rate (eGFR) at Week 12 and Week 24.\nAnalysis populations included: • Modified Intention-to-Treat (mITT): The mITT includes all randomized subjects who received at least one dose of study treatment and at least one post-dose efficacy measurement. […] The PP population will be used for primary endpoint analysis and to analyze efficacy endpoints. • All Randomized Population (ARP): The ARP includes all randomized subjects. This population is also known as the Intent-to-Treat (ITT) population. The ARP will be used in confirmatory efficacy analyses. • Safety Population (SP): The SP includes all randomized subjects who have received at least one dose of study treatment. The SP was used to summarize safety variables.\nProvided below is data on safety on Compound 1 orally administered to patients according to the study protocol described herein. The data is from one-hundred patients that were enrolled in the trial. Per the study protocol described above, patients enrolled in the study were randomized 1:1 for receipt of placebo versus Compound 1. The safety data below is the combined results from patients that received placebo and those received Compound 1.\nTable 9 below provides a summary of occurrence of adverse events across 100 subjects enrolled in the study, which is the combined results from patients that received placebo and those that received Compound 1. […]",
  "key": {"[1]": {"details": "100 subjects, combined placebo + Compound 1, bilateral ocular events counted twice"}, "[2]": {"details": "100 subjects, combined placebo + Compound 1 patients"}},
  "data": [
    {"smiles": "CCCCCCCCC/C(=C\\C1=C(C)C(=O)C(OC)=C(OC)C1=O)C(=O)O", "note": "[Compound 1, (E)-2-((4,5-dimethoxy-2-methyl-3,6-dioxocyclohexa-1,4-dien-1-yl)methylene)undecanoic acid]", "values": [
      {"measurement": "No. of Subjects That Experienced a Treatment-Emergent Adverse the Category: Anterior (eye disorder)", "setting": "[1]", "result": 5},
      {"measurement": "No. of Subjects That Experienced a Treatment-Emergent Adverse the Category: Posterior (eye disorder)", "setting": "[1]", "result": 9},
      {"measurement": "No. of Subjects That Experienced a Treatment-Emergent Adverse the Category: Blood or lymphatic system disorder", "setting": "[2]", "result": 1},
      {"measurement": "No. of Subjects That Experienced a Treatment-Emergent Adverse the Category: Cardiac disorder", "setting": "[2]", "result": 1},
      {"measurement": "No. of Subjects That Experienced a Treatment-Emergent Adverse the Category: Ear or labyrinth disorder", "setting": "[2]", "result": 1},
      {"measurement": "No. of Subjects That Experienced a Treatment-Emergent Adverse the Category: Eye disorder", "setting": "[2]", "result": 9},
      {"measurement": "No. of Subjects That Experienced a Treatment-Emergent Adverse the Category: Gastrointestinal disorder", "setting": "[2]", "result": 9},
      {"measurement": "No. of Subjects That Experienced a Treatment-Emergent Adverse the Category: General disorders or administration site condition", "setting": "[2]", "result": 1},
      {"measurement": "No. of Subjects That Experienced a Treatment-Emergent Adverse the Category: Hepatobiliary disorder", "setting": "[2]", "result": 1},
      {"measurement": "No. of Subjects That Experienced a Treatment-Emergent Adverse the Category: Infection or infestation", "setting": "[2]", "result": 9},
      {"measurement": "No. of Subjects That Experienced a Treatment-Emergent Adverse the Category: Injury, poisoning, or procedural complication", "setting": "[2]", "result": 1},
      {"measurement": "No. of Subjects That Experienced a Treatment-Emergent Adverse the Category: Investigation", "setting": "[2]", "result": 3},
      {"measurement": "No. of Subjects That Experienced a Treatment-Emergent Adverse the Category: Metabolism or nutrition disorder", "setting": "[2]", "result": 1},
      {"measurement": "No. of Subjects That Experienced a Treatment-Emergent Adverse the Category: Musculoskeletal and connective tissue disorder", "setting": "[2]", "result": 5},
      {"measurement": "No. of Subjects That Experienced a Treatment-Emergent Adverse the Category: Nervous system disorder", "setting": "[2]", "result": 7},
      {"measurement": "No. of Subjects That Experienced a Treatment-Emergent Adverse the Category: Not coded", "setting": "[2]", "result": 4},
      {"measurement": "No. of Subjects That Experienced a Treatment-Emergent Adverse the Category: Psychiatric disorder", "setting": "[2]", "result": 2},
      {"measurement": "No. of Subjects That Experienced a Treatment-Emergent Adverse the Category: Reproductive system or breast disorder", "setting": "[2]", "result": 1},
      {"measurement": "No. of Subjects That Experienced a Treatment-Emergent Adverse the Category: Respiratory, thoracic, or mediastinal disorder", "setting": "[2]", "result": 2},
      {"measurement": "No. of Subjects That Experienced a Treatment-Emergent Adverse the Category: Skin and subcutaneous tissue disorder", "setting": "[2]", "result": 7},
      {"measurement": "No. of Subjects That Experienced a Treatment-Emergent Adverse the Category: Vascular disorder", "setting": "[2]", "result": 1},
      {"measurement": "safety profile", "setting": "administered according to study protocol, 600 mg/day oral, 24 weeks", "result": "good safety profile"},
      {"measurement": "total treatment-emergent adverse events observed", "setting": "from 100 subjects, combined placebo + Compound 1 patients", "result": 83},
      {"measurement": "subjects reporting at least one treatment-emergent adverse event", "setting": "of 100 subjects, combined placebo + Compound 1 patients", "result": 41}
    ]}
  ]
}
